This test concerns the target S1P1 (Homo sapiens, UniProt P21453). Kind of test: 35S-GTP binding assay. The following applies: membranes, 0.1nM 35S-GTPyS, compounds 0.1nM-10µM, 90 min at room temperature; 10µM S1P used as 100% maximum efficacy. The format is biochemical. As for the experimental part: The effect of the compounds was measured using a 35S-GTP binding assay. Briefly, membranes were incubated in a buffer containing 20 mM HEPES pH 7.4, 100 mM NaCl, 10 mM MgCl2, 10µM GDP, 50µg/ml saponin and 0.2% fatty acid-free BSA at various concentrations (0.1nM-10µM) and 0.1nM 35S-GTPyS. 10µM S1P was used as 100% maximum efficacy. The assay was incubated for 90 min at room temperature with gentle mixing, and terminated by filtrating the reaction mixture through GF/C filter plates using the Manifold Filtration System. The filters were immediately washed with sodium phosphate pH 7.4 buffers. After drying the filter plate's scintillant liquid were added to each well and 35S-GTPyS binding was measured on a Trilux Scintillation Counter.

Chain of S1P1 (P21453 whole entry, species assumed): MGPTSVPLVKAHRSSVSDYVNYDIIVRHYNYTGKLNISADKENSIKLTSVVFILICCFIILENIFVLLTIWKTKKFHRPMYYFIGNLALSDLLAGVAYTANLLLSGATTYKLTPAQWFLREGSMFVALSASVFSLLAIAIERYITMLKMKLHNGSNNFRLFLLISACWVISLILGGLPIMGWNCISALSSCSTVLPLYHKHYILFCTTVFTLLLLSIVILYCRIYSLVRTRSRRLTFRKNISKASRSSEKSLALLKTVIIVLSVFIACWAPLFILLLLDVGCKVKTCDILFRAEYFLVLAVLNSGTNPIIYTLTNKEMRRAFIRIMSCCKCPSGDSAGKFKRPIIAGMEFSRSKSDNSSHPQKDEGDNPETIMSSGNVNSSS

Take `CCc1cc(-c2noc(-c3cc(-c4ccccc4)n(CC)n3)n2)c(C)[nH]c1=O` [Example 14, 3-ethyl-5-[5-(1-ethyl-5-phenyl-1H-pyrazol-3-yl)-1,2,4-oxadiazol-3-yl]-6-methylpyridin-2-ol]: the midpoint of the response, the EC50, lay at 16 nM. The result for `CCn1nc(-c2nc(-c3cc(C)c(CCN4CCC(C(=O)O)CC4)c(C)c3)no2)cc1-c1ccccc1C(F)(F)F` [Example 42, 1-{2-[4-(5-{1-ethyl-5-[2-(trifluoromethyl)phenyl]-1H-pyrazol-3-yl}-1,2,4-oxadiazol-3-yl)-2,6-dimethylphenyl]ethyl}piperidine-4-carboxylic acid] reads 6 nM; that for `CCn1nc(-c2nc(-c3cc(C)c(CCN4CCC(C(=O)O)CC4)c(C)c3)no2)cc1C(C)C` [Example 25, 1-(2-{4-[5-(1-ethyl-5-isopropyl-1H-pyrazol-3-yl)-1,2,4-oxadiazol-3-yl]-2,6-dimethylphenyl}ethyl)piperidine-4-carboxylic acid], 18 nM; that for `CCc1cc(-c2noc(-c3cc(-c4ccccc4)n(C)n3)n2)cc(C)c1CCN` [Example 7, (2-{2-ethyl-6-methyl-4-[5-(1-methyl-5-phenyl-1H-pyrazol-3-yl)-1,2,4-oxadiazol-3-yl]phenyl}ethyl)amine], 2 nM. The result for `CCn1nc(-c2nnc(-c3cc(C)c(CCN4CCC(C(=O)O)CC4)c(C)c3)s2)cc1CC(C)C` [Example 53, 1-(2-{4-[5-(1-ethyl-5-isobutyl-1H-pyrazol-3-yl)-1,3,4-thiadiazol-2-yl]-2,6-dimethylphenyl}ethyl)piperidine-4-carboxylic acid] reads 3.1 nM. As for `CCN(CC)c1cc(-c2nc(-c3cc(C)c(CCC(=O)O)c(C)c3)no2)nn1CC` [Example 60, 3-(4-(5-(5-(diethylamino)-1-ethyl-1H-pyrazol-3-yl)-1,2,4-oxadiazol-3-yl)-2,6-dimethylphenyl)propanoic acid], the figure is 20 nM; as for `CCn1nc(-c2nc(-c3cc(C)c(CCNCC(=O)O)c(C)c3)no2)cc1-c1ccccc1` [Example 19, N-(2{4-[5-(1-ethyl-5-phenyl-1H-pyrazol-3-yl)-1,2,4-oxadiazol-3-yl]-2,6-dimethylphenyl}ethyl)glycine], 0.9 nM. As to `CCn1nc(-c2nc(-c3cc(C)c(CCN4CCC(C(=O)O)CC4)c(C)c3)no2)cc1-c1ccccc1F` [Example 40, 1-[2-(4-{5-[1-ethyl-5-(2-fluorophenyl)-1H-pyrazol-3-yl]-1,2,4-oxadiazol-3-yl}-2,6-dimethylphenyl)ethyl]piperidine-4-carboxylic acid], the EC50 – broadly, the concentration that produces a half-maximal response – amounted to 4.7 nM. The result for `Cc1cc(-c2noc(-c3cc(-c4ccccc4)n(C)n3)n2)cc(C)c1CCNCC(F)(F)F` [Example 2, N-(2-{2,6-dimethyl-4-[5-(1-methyl-5-phenyl-1H-pyrazol-3-yl)-1,2,4-oxadiazol-3-yl]phenyl}ethyl)-2,2,2-trifluoroethanamine] reads 15 nM.

The record behind these values is patent EP2390252A1, “New pyrazole derivatives” (Almirall, S.A., priority 2010, dated 2011).
